Experimental data from the NIST ThermoML archive (doi:10.1021/acs.jced.8b00132).
Values joined by “and” are separate entries in the source; they are usually repeats but may differ in a detail not shown here. Identical values can stand only once.

Settings: transient hot wire

O=C(C(F)(F)C(F)(F)F)C(F)(C(F)(F)F)C(F)(F)F [dodecafluoro-2-methylpentan-3-one]
Settings | thermal conductivity
359 K, 91 kPa, Gas | 0.0172 W/m/K and 0.01701 W/m/K
359.01 K, 17992 kPa, Liquid | 0.05723 W/m/K
359.02 K, 33597 kPa, Liquid | 0.06346 W/m/K
359.03 K, 33605 kPa, Liquid | 0.06342 W/m/K
359.05 K, 56095 kPa, Liquid | 0.07054 W/m/K
359.05 K, 56112 kPa, Liquid | 0.07057 W/m/K
359.07 K, 256 kPa, Gas | 0.0162 W/m/K
359.07 K, 257 kPa, Gas | 0.01618 W/m/K
359.07 K, 11964 kPa, Liquid | 0.05443 W/m/K
359.07 K, 11965 kPa, Liquid | 0.05441 W/m/K
359.13 K, 188 kPa, Gas | 0.01636 W/m/K
359.13 K, 24956 kPa, Liquid | 0.06016 W/m/K
359.14 K, 7109 kPa, Liquid | 0.05182 W/m/K
359.14 K, 7110 kPa, Liquid | 0.05179 W/m/K
359.14 K, 24956 kPa, Liquid | 0.06017 W/m/K
359.14 K, 43845 kPa, Liquid | 0.06681 W/m/K
359.14 K, 43855 kPa, Liquid | 0.06693 W/m/K
359.16 K, 26 kPa, Gas | 0.01687 W/m/K
359.16 K, 67834 kPa, Liquid | 0.07385 W/m/K
359.17 K, 67856 kPa, Liquid | 0.07389 W/m/K
359.19 K, 3417 kPa, Liquid | 0.04968 W/m/K
359.19 K, 3419 kPa, Liquid | 0.04955 W/m/K
359.22 K, 17993 kPa, Liquid | 0.05729 W/m/K and 0.05726 W/m/K
359.22 K, 33590 kPa, Liquid | 0.06336 W/m/K
359.23 K, 33591 kPa, Liquid | 0.06345 W/m/K
359.24 K, 91 kPa, Gas | 0.01701 W/m/K and 0.01691 W/m/K
359.24 K, 56073 kPa, Liquid | 0.07065 W/m/K
359.24 K, 56086 kPa, Liquid | 0.07061 W/m/K
359.27 K, 352 kPa, Liquid | 0.04733 W/m/K and 0.04736 W/m/K
359.28 K, 352 kPa, Liquid | 0.04735 W/m/K
359.29 K, 352 kPa, Liquid | 0.04741 W/m/K
359.29 K, 11963 kPa, Liquid | 0.05419 W/m/K
359.29 K, 11964 kPa, Liquid | 0.05442 W/m/K
359.3 K, 256 kPa, Gas | 0.01611 W/m/K
359.31 K, 256 kPa, Gas | 0.01615 W/m/K
359.32 K, 43840 kPa, Liquid | 0.06681 W/m/K
359.33 K, 24951 kPa, Liquid | 0.06022 W/m/K
359.34 K, 24951 kPa, Liquid | 0.06017 W/m/K
359.34 K, 43843 kPa, Liquid | 0.06687 W/m/K
359.35 K, 67807 kPa, Liquid | 0.07425 W/m/K
359.36 K, 7099 kPa, Liquid | 0.0518 W/m/K
359.36 K, 67822 kPa, Liquid | 0.07392 W/m/K
359.37 K, 187 kPa, Gas | 0.01646 W/m/K
359.37 K, 7108 kPa, Liquid | 0.05182 W/m/K
359.38 K, 187 kPa, Gas | 0.01639 W/m/K
359.4 K, 26 kPa, Gas | 0.01671 W/m/K
359.41 K, 26 kPa, Gas | 0.01672 W/m/K
359.42 K, 3418 kPa, Liquid | 0.04952 W/m/K
359.42 K, 3419 kPa, Liquid | 0.04953 W/m/K
359.42 K, 33575 kPa, Liquid | 0.06335 W/m/K
359.43 K, 33582 kPa, Liquid | 0.06336 W/m/K
359.43 K, 56047 kPa, Liquid | 0.07056 W/m/K
359.44 K, 17994 kPa, Liquid | 0.05721 W/m/K
359.44 K, 18001 kPa, Liquid | 0.05746 W/m/K
359.44 K, 56060 kPa, Liquid | 0.07057 W/m/K
359.5 K, 91 kPa, Gas | 0.01707 W/m/K
359.51 K, 91 kPa, Gas | 0.017 W/m/K
359.51 K, 11963 kPa, Liquid | 0.05441 W/m/K
359.52 K, 352 kPa, Liquid | 0.04737 W/m/K and 0.04738 W/m/K
359.52 K, 353 kPa, Liquid | 0.04735 W/m/K
359.52 K, 11964 kPa, Liquid | 0.05441 W/m/K
359.53 K, 352 kPa, Liquid | 0.04692 W/m/K
359.54 K, 43829 kPa, Liquid | 0.06685 W/m/K
359.54 K, 43830 kPa, Liquid | 0.06684 W/m/K
359.55 K, 24946 kPa, Liquid | 0.06014 W/m/K
359.55 K, 24949 kPa, Liquid | 0.06011 W/m/K
359.56 K, 256 kPa, Gas | 0.01628 W/m/K
359.57 K, 256 kPa, Gas | 0.01631 W/m/K
359.6 K, 7096 kPa, Liquid | 0.05174 W/m/K
359.6 K, 7098 kPa, Liquid | 0.05175 W/m/K
359.63 K, 33565 kPa, Liquid | 0.06333 W/m/K
359.64 K, 187 kPa, Gas | 0.01647 W/m/K and 0.01644 W/m/K
359.64 K, 33572 kPa, Liquid | 0.06333 W/m/K
359.66 K, 18006 kPa, Liquid | 0.0572 W/m/K
359.67 K, 3420 kPa, Liquid | 0.04948 W/m/K
359.67 K, 3421 kPa, Liquid | 0.04951 W/m/K
359.67 K, 18004 kPa, Liquid | 0.05719 W/m/K
359.7 K, 26 kPa, Gas | 0.0168 W/m/K and 0.01681 W/m/K
359.75 K, 11967 kPa, Liquid | 0.05434 W/m/K
359.76 K, 11965 kPa, Liquid | 0.05435 W/m/K
359.77 K, 353 kPa, Liquid | 0.04733 W/m/K
359.78 K, 352 kPa, Liquid | 0.0473 W/m/K and 0.04737 W/m/K
359.78 K, 353 kPa, Liquid | 0.0473 W/m/K
359.78 K, 24941 kPa, Liquid | 0.06008 W/m/K
